Source: PubChem BioAssay (NCI)
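The compound was tested at five concentrations on cells cultured in 96-well plates, with a 48-hour exposure period. TGI is the concentration that stops growth completely.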

Legend:
Test in all cases: NCI tumour cell line growth inhibition, 48 h
[1] = system: SN12C renal
[2] = system: K-562 leukemia
[3] = system: M14 melanoma
[4] = system: HCT-116 colon
[5] = system: KM12 colon
[6] = system: RPMI-8226 leukemia
[7] = system: SF-295 CNS
[8] = system: OVCAR-5 ovarian
[9] = system: IGROV1 ovarian
[10] = system: PC-3 prostate
[11] = system: HCC-2998 colon
[12] = system: SF-539 CNS
[13] = system: NCI-H460 lung
[14] = system: A498 renal
[15] = system: HCT-15 colon

CC1(C)C=C(/C=N/Nc2ccc(Br)cc2)C(C#N)=C(O)C1(C#N)C#N was tested, and the TGI [1] was > 100 µM, the TGI [2] was > 100 µM and the TGI [3] was > 100 µM. The TGI [4] was > 100 µM, the TGI [5] was > 100 µM and the TGI [6] was > 100 µM. For the same compound, the TGI [7] was > 100 µM, the TGI [8] was > 100 µM and the TGI [9] was > 100 µM. The TGI [10] was 63.9 µM, the TGI [11] was > 100 µM and the TGI [12] was > 100 µM. For the same compound, the TGI [13] was > 100 µM.
In the case of CO[C@@](c1ccccc1)(c1nc(C#N)c(N)o1)C(F)(F)F, the TGI [1] is reported as > 100 µM, the TGI [2] is reported as > 100 µM and the TGI [3] is reported as > 100 µM. The TGI [4] was > 100 µM, the TGI [5] was > 100 µM and the TGI [14] was > 100 µM. The TGI [6] was > 100 µM, the TGI [7] was > 100 µM and the TGI [9] was > 100 µM. The TGI [10] was > 100 µM, the TGI [15] was > 100 µM and the TGI [11] was > 100 µM. For the same compound, the TGI [12] was > 100 µM.
In the case of CCCCSC1=N/C(=C\c2ccco2)C(=O)N1, the TGI [1] is reported as > 100 µM, the TGI [3] is reported as > 100 µM and the TGI [4] is reported as > 100 µM. The TGI [5] was > 100 µM, the TGI [14] was > 100 µM and the TGI [6] was > 100 µM. The TGI [7] was > 100 µM, the TGI [8] was > 100 µM and the TGI [9] was > 100 µM. For the same compound, the TGI [10] was > 100 µM, the TGI [15] was > 100 µM and the TGI [11] was > 100 µM. For the same compound, the TGI [13] was > 100 µM.
For CC1(C)OC(=O)C(C)(C)OC1=O, the TGI [1] was > 100 µM, the TGI [2] was > 100 µM and the TGI [3] was > 100 µM. For the same compound, the TGI [4] was > 100 µM, the TGI [5] was > 100 µM and the TGI [14] was > 100 µM. For the same compound, the TGI [6] was > 100 µM, the TGI [7] was > 100 µM and the TGI [8] was > 100 µM. For the same compound, the TGI [9] was > 100 µM, the TGI [10] was > 100 µM and the TGI [15] was > 100 µM. The TGI [12] was > 100 µM and the TGI [13] was > 100 µM.
In the case of C[C@]12CC(c3ccccc3O1)C(C#N)C(=O)N2 (stereo partly specified), the TGI [1] is reported as > 100 µM, the TGI [2] is reported as > 100 µM and the TGI [3] is reported as > 100 µM. The TGI [4] was > 100 µM, the TGI [5] was > 100 µM and the TGI [14] was > 100 µM. For the same compound, the TGI [6] was > 100 µM, the TGI [8] was > 100 µM and the TGI [9] was > 100 µM. For the same compound, the TGI [10] was > 100 µM, the TGI [15] was > 100 µM and the TGI [11] was > 100 µM. The TGI [13] was > 100 µM.
With NC1=CC(C(=O)c2ccncc2)c2nc3ccccc3nc21 (stereo unspecified) the TGI [1] was > 100 µM, the TGI [3] was > 100 µM and the TGI [4] was > 100 µM. For the same compound, the TGI [5] was > 100 µM, the TGI [14] was > 100 µM and the TGI [6] was > 100 µM. For the same compound, the TGI [7] was > 100 µM, the TGI [8] was > 100 µM and the TGI [9] was > 100 µM. For the same compound, the TGI [10] was > 100 µM, the TGI [15] was > 100 µM and the TGI [11] was > 100 µM. For the same compound, the TGI [12] was > 100 µM and the TGI [13] was > 100 µM.
With C[C@H]1C(OCCOC2O[C@@H]3O[C@@]4(C)CC[C@H]5[C@H](C)CCC([C@H]2C)[C@@]35O4)O[C@@H]2O[C@@]3(C)CC[C@H]4[C@H](C)CCC1[C@@]24O3 (stereo partly specified) the TGI [1] was 52.6 µM, the TGI [2] was > 100 µM and the TGI [3] was > 100 µM. The TGI [4] was 78.6 µM, the TGI [5] was > 100 µM and the TGI [14] was > 100 µM. For the same compound, the TGI [6] was > 100 µM, the TGI [8] was > 100 µM and the TGI [9] was 90.6 µM. For the same compound, the TGI [10] was > 100 µM, the TGI [15] was > 100 µM and the TGI [11] was 43.7 µM. The TGI [12] was > 100 µM and the TGI [13] was > 100 µM.
With COC(=O)C(/C(=N/N)C(=O)Nc1cc(Cl)c(Cl)cc1Cl)c1nc2ccc(Cl)cc2[nH]c1=O (stereo unspecified) the TGI [1] was > 100 µM, the TGI [2] was > 100 µM and the TGI [3] was > 100 µM. For the same compound, the TGI [4] was > 100 µM, the TGI [5] was > 100 µM and the TGI [14] was > 100 µM. The TGI [6] was > 100 µM, the TGI [7] was > 100 µM and the TGI [8] was > 100 µM. The TGI [9] was > 100 µM, the TGI [10] was > 100 µM and the TGI [15] was > 100 µM. For the same compound, the TGI [12] was > 100 µM and the TGI [13] was > 100 µM.
For CN1CC2=C(NC(=S)NC2c2ccc(Cl)cc2)/C(=C/c2ccc(Cl)cc2)C1 (stereo unspecified), the TGI [1] was 36.4 µM, the TGI [2] was 32.7 µM and the TGI [3] was 33.6 µM. For the same compound, the TGI [4] was 29.2 µM, the TGI [5] was 38.2 µM and the TGI [6] was 92.4 µM. For the same compound, the TGI [7] was 33.8 µM, the TGI [8] was 31.4 µM and the TGI [9] was 32.6 µM. The TGI [10] was 23.1 µM, the TGI [15] was 37.5 µM and the TGI [11] was 34 µM. The TGI [12] was 62.9 µM and the TGI [13] was 28.1 µM.
For CCCC(=O)N/S(=N/S(=O)(=O)c1ccc(Cl)cc1)C(Cl)(Cl)Cl (stereo unspecified), the TGI [1] was > 100 µM, the TGI [2] was > 100 µM and the TGI [3] was > 100 µM. For the same compound, the TGI [4] was > 100 µM, the TGI [5] was > 100 µM and the TGI [14] was > 100 µM. For the same compound, the TGI [7] was > 100 µM, the TGI [8] was > 100 µM and the TGI [9] was > 100 µM. The TGI [10] was > 100 µM, the TGI [15] was > 100 µM and the TGI [11] was > 100 µM. For the same compound, the TGI [12] was > 100 µM and the TGI [13] was > 100 µM.
CC(=N/NC(=S)Nc1c(C)n(C)n(-c2ccccc2)c1=O)/C(C)=N\NC(=S)Nc1c(C)n(C)n(-c2ccccc2)c1=O was tested, and the TGI [3] was > 100 µM, the TGI [4] was > 100 µM and the TGI [5] was > 100 µM. For the same compound, the TGI [14] was > 100 µM, the TGI [7] was > 100 µM and the TGI [8] was > 100 µM. For the same compound, the TGI [10] was > 100 µM, the TGI [15] was > 100 µM and the TGI [11] was > 100 µM. For the same compound, the TGI [12] was > 100 µM and the TGI [13] was > 100 µM.
COc1ccc(C2SC(N)=Nc3c2c(C)nn3C(=O)c2ccc(Cl)cc2)cc1 (stereo unspecified) was tested, and the TGI [1] was > 10 µM, the TGI [2] was > 10 µM and the TGI [3] was > 10 µM. The TGI [4] was > 10 µM, the TGI [5] was > 10 µM and the TGI [6] was > 10 µM. For the same compound, the TGI [7] was > 10 µM, the TGI [8] was > 10 µM and the TGI [9] was > 10 µM. The TGI [10] was > 10 µM, the TGI [15] was > 10 µM and the TGI [11] was > 10 µM. For the same compound, the TGI [12] was > 10 µM and the TGI [13] was > 10 µM.
CO/C(=N\N=C\c1ccc(OC)cc1OC)c1ccncc1 was tested, and the TGI [1] was > 10 µM, the TGI [2] was > 10 µM and the TGI [4] was > 10 µM. The TGI [5] was > 10 µM, the TGI [14] was > 10 µM and the TGI [6] was > 10 µM. For the same compound, the TGI [7] was > 10 µM, the TGI [8] was > 10 µM and the TGI [9] was > 10 µM. For the same compound, the TGI [10] was > 10 µM, the TGI [15] was > 10 µM and the TGI [11] was > 10 µM. For the same compound, the TGI [12] was > 10 µM and the TGI [13] was > 10 µM.
For CN(C)c1ccc(/C=C2\N=C(N/N=C/c3ccccc3)NC2=O)cc1, the TGI [1] was > 100 µM, the TGI [3] was > 100 µM and the TGI [4] was > 100 µM. For the same compound, the TGI [5] was > 100 µM, the TGI [14] was > 100 µM and the TGI [6] was > 100 µM. The TGI [7] was > 100 µM, the TGI [8] was > 100 µM and the TGI [9] was > 100 µM. For the same compound, the TGI [10] was > 100 µM, the TGI [15] was > 100 µM and the TGI [11] was > 100 µM. For the same compound, the TGI [13] was > 100 µM.
In the case of CCOC(=O)c1cc(C2CCN(CC(C)CC)C2=S)c(C(=O)/C=C(/C)N)[nH]1 (stereo unspecified), the TGI [1] is reported as > 50 µM, the TGI [2] is reported as > 50 µM and the TGI [3] is reported as > 50 µM. For the same compound, the TGI [4] was > 50 µM, the TGI [5] was > 50 µM and the TGI [14] was > 50 µM. The TGI [6] was > 50 µM, the TGI [7] was > 50 µM and the TGI [8] was > 50 µM. The TGI [9] was > 50 µM, the TGI [10] was > 50 µM and the TGI [15] was > 50 µM. For the same compound, the TGI [12] was > 50 µM and the TGI [13] was > 50 µM.
For CC1(C)C=[N+]([O-])C(C)(C)N1, the TGI [1] was > 100 µM, the TGI [2] was > 100 µM and the TGI [3] was > 100 µM. For the same compound, the TGI [4] was > 100 µM, the TGI [5] was > 100 µM and the TGI [6] was > 100 µM. The TGI [7] was > 100 µM, the TGI [8] was > 100 µM and the TGI [9] was > 100 µM. For the same compound, the TGI [10] was > 100 µM, the TGI [15] was > 100 µM and the TGI [11] was > 100 µM. The TGI [12] was > 100 µM and the TGI [13] was > 100 µM.
